Source: patent US10501493B2, “Broad spectrum antibiotics” (priority 2011, dated 2019)
Converted amounts (≈) assume the structure as drawn. Like-named read-outs stand apart in the source and are kept apart here.

Columns and labels:
[1] = target: T1, E. coli SPase (Escherichia coli, UniProt P00803); assay: Steady state binding constant (Kd) determination by fluorescence increase
T1 construct: Full length His-tagged E. coli SPase proteins were expressed in E. coli BL21(DE3); His-tag; made in house; host or cells: E. coli BL21(DE3)
Procedure: (§1) Full length His-tagged E. coli SPase proteins were expressed in E. coli BL21(DE3) containing the plasmid pET23-lepB, P. A. Smith et al. Chem Biol 2010, 1223-1231. Briefly, saturated overnight cultures grown in 20 ml of Luria-Bertani medium supplemented with ampicillin were subcultures into 1.5 L of Luria-Bertani, and shaken at 37° C. until an optical density at 600 nm of 0.4-0.5 was achieved. Protein expression was induced with Isopropyl β-D-1-thiogalactopyranoside (ITPG) at a final concentration of […], and purified using nickel affinity chromatography. Full length His-tagged S. aureus SPase protein was expressed similarly from E. coli BL21(DE3) containing the plasmid pCDF1-SaSpsB or pCDF1-SaSpsB(P29S) and purified similarly to the E. coli protein with the following exceptions. SPase protein was solubilized using 300 mM NaCl, 20 mM Tris pH 8.06, 5 mM Imidazole, 10% glycerol, 1% Triton X-100, prior to purification in Ni-NTA Superflow resin and resin bound protein was washed in a similar buffer containing 1% Elugent in place of Triton X-100 prior to protein eluted in wash buffer supplemented with 300 mM imidazole. Protein purify was judged to exceed 95% by visual inspection of SDS-PAGE followed by Comassie staining. All protein concentrations were determined by BCA assay.
(§2) Steady state binding constants (Kds) of compounds were determined by measuring an increase in fluorescence (λex=280 nm, λem=405 nm) that occurs upon binding to E. coli or S. aureus SPase protein. Two-fold serial dilutions of compounds were prepared in 100% DMSO, and compounds were diluted into binding buffer consisting of 100 mM NaCl, 20 mM Tris-HCl pH 7.4, 1 mM EDTA, 1% n-octyl-3-glucopyranoside (Anatrace), and 10% glycerol, with the final DMSO concentration equal to 1%. 70 μl of the resulting solutions containing various concentrations of compound in binding buffer were aliquoted into triplicate wells of a black polystyrene 384-well plate. 5 μl of blank solution or E. coli or S. aureus protein at concentrations of 750 or 3750 nM respectively, were added to each set of wells for a given inhibitor concentration. Plates were incubated for 14 hours and fluorescence read on an EnVision Multilable plate reader (Perkin Elmer™). Differences in fluorescence values between wells with and without protein were determined and background corrected for protein auto fluorescence. The corrected fluorescence difference data was fit to the quadratic equilibrium binding curve using the non-linear regression analysis software Solver (Frontline Systems®) run in Excel 2010, (Microsoft®), using experimentally determined quantum efficiency constants to convert fluorescence into nanomoles of protein/compound complex.

[2] = target: T2, S. aureus SPase (Staphylococcus aureus, UniProt P0A070); assay: as above
T2 construct: Full length His-tagged S. aureus SPase protein was expressed similarly; His-tag; made in house; host or cells: E. coli BL21(DE3)
Procedure: as §1, §2

[3] = system: S. pyogenes M15448; assay: In vitro antimicrobial activity, MIC by broth micro-dilution; format: cell-based
Summary of the method: (§3)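 CLSI broth micro-dilution MIC against two-fold serial compound dilutions. Inoculum came from colonies grown 24 h at 35° C. or 28° C., suspended in cation-adjusted Mueller Hinton broth at 1*10^7 CFU/ml, of which 5 μl was added per 100 μl well. LepB(P84L) is a proline-mutant SPase strain with heightened arylomycin susceptibility.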

[4] = system: S. pyogenes ATCC 19615; assay: as above; format: cell-based
[5] = system: S. aureus ATCC 29213; assay: as above; format: cell-based
[6] = system: S. aureus NCTC-8325 SpsB(P295); assay: as above; format: cell-based
[7] = system: S. agalactiae ATCC 13813; assay: as above; format: cell-based
[8] = system: S. epidermidis RP62A SpsIB(S31P); assay: as above; format: cell-based
[9] = system: E. coli MIG1655 LepB(P84L); assay: as above; format: cell-based
Summary of the method: as §3

[10] = system: S. epidermidis RP62A SpsIB(S29P); assay: as above; format: cell-based
[11] = system: S. agalactiae COH-1; assay: as above; format: cell-based
[12] = system: R. equi DSM 6939; assay: as above; format: cell-based
Summary of the method: as §3

[13] = system: S. pneumoniae R800; assay: as above; format: cell-based
Summary of the method: as §3

[14] = system: S. epidermidis RP62A; assay: as above; format: cell-based; conditions: S. epidermidis RP62A
[15] = system: P. aeruginosa PA01 LepB(P84L); assay: as above; format: cell-based
Summary of the method: as §3

[16] = system: C. glutamicum DSM 44475; assay: as above; format: cell-based
[17] = system: S. epidermidis ATCC 12228; assay: as above; format: cell-based
[18] = system: S. pneumoniae D39; assay: as above; format: cell-based; conditions: S. pneumoniae D39
[19] = system: E. coli MIG1655; assay: as above; format: cell-based; conditions: E. coli MIG1655
Summary of the method: as §3

[20] = system: P. aeruginosa PA01; assay: as above; format: cell-based
Summary of the method: as §3

[21] = S. epidermidis RP62A SpsIB(S31P)
[22] = S. epidermidis RP62A SpsIB(S29P)
[23] = Streptococcus pyogenes, ATCC19615, read-out: MIC
[24] = Staphylococcus aureus, ATCC29213, read-out: MIC
[25] = Staphylococcus aureus, NCTC8325
[26] = Streptococcus agalactiae, ATCC13813, read-out: MIC
[27] = Streptococcus pneumoniae, read-out: MIC
[28] = Staphylococcus epidermidis, read-out: MIC
[29] = Corynebacterium glutamicum, DSM44475, read-out: MIC
[30] = Staphylococcus epidermidis, ATCC12228, read-out: MIC
[31] = Streptococcus pyogenes, S. pyogenes M15448, read-out: MIC
[32] = Streptococcus agalactiae, COH1, S. agalactiae COH-1, read-out: MIC

Structure (SMILES) | MIC ([3]; S. pyogenes M15448) [µg/mL] | MIC [4] [µg/mL] | MIC [5] [µg/mL] | Kd [1] [µM] | Kd [2] [µM] | MIC [4, 23] [µg/mL] | MIC [5, 24] [µg/mL] | MIC [6, 25] [µg/mL] | MIC [7, 26] [µg/mL] | MIC ([8]; Staphylococcus epidermidis) [µg/mL] | MIC ([9]; Escherichia coli) [µg/mL] | MIC ([10]; Staphylococcus epidermidis) [µg/mL] | MIC [13, 27] [µg/mL] | MIC [14, 28] [µg/mL] | MIC ([15]; Pseudomonas aeruginosa) [µg/mL] | MIC [16, 29] [µg/mL] | MIC [17, 30] [µg/mL] | MIC [18, 27] [µg/mL] | MIC [3, 31] [µg/mL] | MIC [11, 32] [µg/mL] | other results
CCCCCCCCCCCCCCCC(=O)N(C)[C@H](CO)C(=O)N[C@H](C)C(=O)NCC(=O)N(C)[C@@H]1C(=O)N[C@@H](C)C(=O)N[C@H](C(=O)N[C@@H](C)C(=O)NS(C)(=O)=O)Cc2ccc(O)c(c2)-c2cc1ccc2O [Compound 23] | 16 (≈ 15.5 µM) | 16 (≈ 15.5 µM) | >64 | – | – | – | – | – | – | – | – | – | – | – | – | – | – | – | – | – | Kd ([1]; in vitro equilibrium Kd, read-out: Kd E. coli SPase): 3 µM; Kd ([2]; in vitro equilibrium Kd, read-out: Kd S. aureus SPase): 8.9 µM; MIC ([6]; S. aureus NCTC-8325 SpsB(P295)): 8 µg/mL (≈ 7.77 µM); MIC [7]: 32 µg/mL (≈ 31.1 µM); MIC [8, 21]: >64 µg/mL; MIC ([9]; E. coli MIG1655 LepB(P84L)): 8 µg/mL (≈ 7.77 µM); MIC [10, 22]: 16 µg/mL (≈ 15.5 µM); MIC ([11]; S. agalactiae COH-1): >64 µg/mL; MIC [12]: >64 µg/mL; MIC [13]: 8 µg/mL (≈ 7.77 µM); MIC [14]: 2 µg/mL (≈ 1.94 µM); MIC ([15]; P. aeruginosa PA01 LepB(P84L)): >64 µg/mL; MIC [16]: 8 µg/mL (≈ 7.77 µM); MIC [17]: 8 µg/mL (≈ 7.77 µM); MIC [18]: 8 µg/mL (≈ 7.77 µM)
CCCCCCCCCCCCCCCC(=O)N[C@H](CC(N)=O)C(=O)N[C@H](C)C(=O)NCC(=O)N(C)[C@@H]1C(=O)N[C@@H](C)C(=O)N[C@H](C(=O)O)Cc2ccc(O)c(c2)-c2cc1ccc2O [Compound 34] | >64 | >64 | >64 | – | – | – | – | – | – | – | – | – | – | – | – | – | – | – | – | – | MIC [19]: >64 µg/mL; MIC [20]: >64 µg/mL; MIC ([6]; S. aureus NCTC-8325 SpsB(P295)): >64 µg/mL; MIC [7]: >64 µg/mL; MIC [8, 21]: >64 µg/mL; MIC ([9]; E. coli MIG1655 LepB(P84L)): >64 µg/mL; MIC [10, 22]: >64 µg/mL; MIC ([11]; S. agalactiae COH-1): >64 µg/mL; MIC [12]: >64 µg/mL; MIC [13]: >64 µg/mL; MIC [14]: >64 µg/mL; MIC ([15]; P. aeruginosa PA01 LepB(P84L)): >64 µg/mL; MIC [16]: >64 µg/mL; MIC [17]: >64 µg/mL; MIC [18]: >64 µg/mL
CCCCCCCCCCCCCCCC(=O)N(C)[C@H](CO)C(=O)N[C@H](C)C(=O)NCC(=O)N(C)[C@@H]1C(=O)N[C@@H](C)C(=O)N[C@H](C(=O)N[C@H](C)C(=O)O)Cc2ccc(O)c(c2)-c2cc1ccc2O [Compound 19] | – | – | – | 2.8 | 18 | 16 (≈ 16.8 µM) | > 64 | > 64 | 32 (≈ 33.6 µM) | > 64 | 8 (≈ 8.4 µM) | > 64 | 32 (≈ 33.6 µM) | 8 (≈ 8.4 µM) | > 64 | 16 (≈ 16.8 µM) | 32 (≈ 33.6 µM) | 16 (≈ 16.8 µM) | – | – | MIC ([3]; Streptococcus pyogenes, M15448): 32 µg/mL (≈ 33.6 µM); MIC ([11]; Streptococcus agalactiae, COH1): > 64 µg/mL
CCCCCCCCCCCCCCCC(=O)N(C)[C@H](CO)C(=O)N[C@H](C)C(=O)NCC(=O)N(C)[C@@H]1C(=O)N[C@@H](C)C(=O)N[C@H](C(=O)NCC(=O)O)Cc2ccc(O)c(c2)-c2cc1ccc2O [Compound 24] | – | – | – | 1.1 | 2.9 | 8 (≈ 8.53 µM) | > 64 | 32 (≈ 34.1 µM) | 64 (≈ 68.2 µM) | > 64 | 4 (≈ 4.26 µM) | > 64 | 8 (≈ 8.53 µM) | 2 (≈ 2.13 µM) | 32 (≈ 34.1 µM) | 64 (≈ 68.2 µM) | 32 (≈ 34.1 µM) | 4 (≈ 4.26 µM) | 16 (≈ 17.1 µM) | > 64 | MIC ([12]; Rhodococcus (subgen. Prescottella) equi, DSM6939, read-out: MIC): > 64 µg/mL
CCCCCCCCCCCCCCCC(=O)N(C)[C@H](CO)C(=O)N[C@H](C)C(=O)NCC(=O)N(C)[C@@H]1C(=O)N[C@@H](C)C(=O)N[C@H](C(=O)N[C@@H](C)C(=O)O)Cc2ccc(O)c(c2)-c2cc1ccc2O [Compound 20] | – | – | – | 12 | 7.8 | 32 (≈ 33.6 µM) | > 64 | > 64 | 32 (≈ 33.6 µM) | > 64 | 32 (≈ 33.6 µM) | 32 (≈ 33.6 µM) | 32 (≈ 33.6 µM) | 4 (≈ 4.2 µM) | > 64 | 64 (≈ 67.2 µM) | 32 (≈ 33.6 µM) | 16 (≈ 16.8 µM) | 64 (≈ 67.2 µM) | > 64 | –
CCCCCCCCCCCCCCCC(=O)N(C)[C@H](CO)C(=O)N[C@H](C)C(=O)NCC(=O)N(C)[C@@H]1C(=O)N[C@@H](C)C(=O)N[C@H](C(=O)N[C@@H](C)C(N)=O)Cc2ccc(O)c(c2)-c2cc1ccc2O [Compound 15] | – | – | – | 5.8 | 2 | 16 (≈ 16.8 µM) | > 64 | 8 (≈ 8.41 µM) | > 64 | > 64 | 8 (≈ 8.41 µM) | > 64 | 16 (≈ 16.8 µM) | 2 (≈ 2.1 µM) | > 64 | > 64 | > 64 | 8 (≈ 8.41 µM) | 16 (≈ 16.8 µM) | > 64 | –
